From PubChem BioAssay (NCI)
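Compound exposure: 48 hours, 5 concentrations, 96-well plates. Definition used: TGI = concentration required for complete inhibition of growth.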

Assays:
Experiment in all cases: DTP human tumour cell line panel, 48 h
[1] = system: U251 CNS
[2] = system: BT-549 breast
[3] = system: A498 renal
[4] = system: NCI-H23 lung
[5] = system: PC-3 prostate
[6] = system: SR leukemia
[7] = system: SF-539 CNS
[8] = system: RXF 393 renal
[9] = system: SW-620 colon
[10] = system: M14 melanoma
[11] = system: SK-MEL-5 melanoma
[12] = system: CAKI-1 renal
[13] = system: CCRF-CEM leukemia
[14] = system: SF-268 CNS
[15] = system: SF-295 CNS
[16] = system: SNB-75 CNS
[17] = system: SK-MEL-28 melanoma
[18] = system: OVCAR-4 ovarian
[19] = system: HCC-2998 colon
[20] = system: MALME-3M melanoma
[21] = system: K-562 leukemia
[22] = system: OVCAR-3 ovarian
[23] = system: HCT-15 colon
[24] = system: NCI-H522 lung
[25] = system: UACC-62 melanoma
[26] = system: SK-MEL-2 melanoma
[27] = system: NCI/ADR-RES ovarian
[28] = system: MDA-MB-435
[29] = system: OVCAR-8 ovarian
[30] = system: UACC-257 melanoma
[31] = system: KM12 colon
[32] = system: OVCAR-5 ovarian
[33] = system: HS 578T breast
[34] = system: MCF7 breast
[35] = system: ACHN renal
[36] = system: HOP-62 NSCLC
[37] = system: T-47D breast
[38] = system: MDA-N
[39] = system: SNB-19 CNS
[40] = system: A549 NSCLC
[41] = system: NCI-H226 lung
[42] = system: UO-31 renal
[43] = system: COLO 205 colon
[44] = system: HOP-92 NSCLC
[45] = system: LOX IMVI melanoma
[46] = system: HCT-116 colon
[47] = system: SK-OV-3 ovarian
[48] = system: MDA-MB-231 breast
[49] = system: HL-60(TB) leukemia
[50] = system: IGROV1 ovarian
[51] = system: SN12C renal
[52] = system: HT29 colon
[53] = system: DU-145 prostate
[54] = system: 786-0 renal
[55] = system: NCI-H460 lung
[56] = system: MOLT-4 leukemia
[57] = system: TK-10 renal
[58] = system: EKVX NSCLC
[59] = system: RPMI-8226 leukemia

Q: Which TGI [1] does the source give for `O=c1n(-c2ccc(Cl)c(Cl)c2)c(=O)n(-c2ccc(Cl)c(Cl)c2)c(=O)n1-c1ccc(Cl)c(Cl)c1` here?
A: 10.6 µM

Q: What about the TGI [2] of the same compound?
A: 8.49 µM

Q: What about the TGI [3] of the same compound?
A: 7.52 µM

Q: What about the TGI [4] of the same compound?
A: 4.91 µM

Q: And the TGI [5]?
A: 4.72 µM

Q: And the TGI [6]?
A: 8.09 µM

Q: And the TGI [7]?
A: 2.77 µM

Q: What about the TGI [8] of the same compound?
A: 7.85 µM

Q: And the TGI [9]?
A: 10.2 µM

Q: What about the TGI [10] of the same compound?
A: 13.1 µM

Q: And the TGI [11]?
A: 3.44 µM

Q: What about the TGI [12] of the same compound?
A: 7.07 µM

Q: What about the TGI [13] of the same compound?
A: 4.5 µM

Q: And the TGI [14]?
A: 6.69 µM

Q: What about the TGI [15] of the same compound?
A: 6.62 µM

Q: What about the TGI [16] of the same compound?
A: 7.75 µM

Q: And the TGI [17]?
A: 15.1 µM

Q: And the TGI [18]?
A: 12.1 µM

Q: And the TGI [19]?
A: > 46.7 µM

Q: What about the TGI [20] of the same compound?
A: > 27.8 µM

Q: What about the TGI [21] of the same compound?
A: 9.05 µM

Q: And the TGI [22]?
A: 13.5 µM

Q: And the TGI [23]?
A: 6.98 µM

Q: And the TGI [24]?
A: 11.5 µM

Q: What about the TGI [25] of the same compound?
A: 11.2 µM

Q: And the TGI [26]?
A: 4.53 µM

Q: What about the TGI [27] of the same compound?
A: 11.2 µM

Q: What about the TGI [28] of the same compound?
A: 16.5 µM

Q: What about the TGI [29] of the same compound?
A: 8.7 µM

Q: What about the TGI [30] of the same compound?
A: 5.73 µM

Q: And the TGI [31]?
A: 7.14 µM

Q: What about the TGI [32] of the same compound?
A: 8.91 µM

Q: And the TGI [33]?
A: 10 µM

Q: What about the TGI [34] of the same compound?
A: 5.03 µM

Q: And the TGI [35]?
A: 6.43 µM

Q: And the TGI [36]?
A: 12.4 µM

Q: What about the TGI [37] of the same compound?
A: 12.6 µM

Q: And the TGI [38]?
A: 8.02 µM

Q: And the TGI [39]?
A: 14.2 µM

Q: And the TGI [40]?
A: 6.37 µM

Q: What about the TGI [41] of the same compound?
A: 9.61 µM

Q: And the TGI [42]?
A: 9.73 µM

Q: And the TGI [43]?
A: 1.95 µM

Q: And the TGI [44]?
A: 2.37 µM

Q: What about the TGI [45] of the same compound?
A: 7.16 µM

Q: What about the TGI [46] of the same compound?
A: 5.5 µM

Q: What about the TGI [47] of the same compound?
A: 3.16 µM

Q: And the TGI [48]?
A: 4.32 µM

Q: What about the TGI [49] of the same compound?
A: > 24.2 µM

Q: And the TGI [50]?
A: 15 µM

Q: And the TGI [51]?
A: > 31.6 µM

Q: And the TGI [52]?
A: 10.9 µM

Q: And the TGI [53]?
A: 12 µM

Q: And the TGI [54]?
A: 7.84 µM

Q: What about the TGI [55] of the same compound?
A: 10.7 µM

Q: And the TGI [56]?
A: 4.6 µM

Q: What about the TGI [57] of the same compound?
A: 17.3 µM

Q: `COc1nc(-c2c[nH]c3ccccc23)cnc1N` was tested. Which TGI [1] did it give?
A: > 100 µM

Q: And the TGI [2]?
A: > 100 µM

Q: What about the TGI [3] of the same compound?
A: 38.5 µM

Q: And the TGI [5]?
A: > 100 µM

Q: What about the TGI [6] of the same compound?
A: 41.1 µM

Q: What about the TGI [7] of the same compound?
A: > 100 µM

Q: And the TGI [9]?
A: > 100 µM

Q: And the TGI [10]?
A: 94.8 µM

Q: And the TGI [11]?
A: > 100 µM

Q: And the TGI [12]?
A: > 100 µM

Q: What about the TGI [13] of the same compound?
A: 14.8 µM

Q: And the TGI [14]?
A: > 100 µM

Q: What about the TGI [15] of the same compound?
A: > 100 µM

Q: And the TGI [17]?
A: 64.6 µM

Q: What about the TGI [18] of the same compound?
A: > 100 µM

Q: And the TGI [19]?
A: > 100 µM

Q: What about the TGI [21] of the same compound?
A: > 100 µM

Q: And the TGI [22]?
A: > 100 µM

Q: What about the TGI [23] of the same compound?
A: > 100 µM

Q: What about the TGI [25] of the same compound?
A: 33.1 µM

Q: And the TGI [26]?
A: 81.6 µM

Q: And the TGI [27]?
A: > 100 µM

Q: What about the TGI [28] of the same compound?
A: > 100 µM

Q: What about the TGI [29] of the same compound?
A: > 100 µM

Q: What about the TGI [30] of the same compound?
A: 51.7 µM

Q: And the TGI [31]?
A: > 100 µM

Q: What about the TGI [58] of the same compound?
A: 61.5 µM

Q: What about the TGI [32] of the same compound?
A: > 100 µM

Q: What about the TGI [33] of the same compound?
A: 54.2 µM

Q: What about the TGI [34] of the same compound?
A: 84.1 µM

Q: What about the TGI [35] of the same compound?
A: > 100 µM

Q: What about the TGI [36] of the same compound?
A: > 100 µM

Q: And the TGI [37]?
A: 82.8 µM

Q: What about the TGI [38] of the same compound?
A: 48.9 µM

Q: What about the TGI [39] of the same compound?
A: > 100 µM

Q: What about the TGI [40] of the same compound?
A: > 100 µM

Q: What about the TGI [42] of the same compound?
A: > 100 µM

Q: What about the TGI [43] of the same compound?
A: > 100 µM

Q: What about the TGI [44] of the same compound?
A: 23.9 µM

Q: And the TGI [45]?
A: > 100 µM

Q: And the TGI [46]?
A: 55.7 µM

Q: And the TGI [47]?
A: > 100 µM

Q: What about the TGI [48] of the same compound?
A: 59.1 µM

Q: And the TGI [49]?
A: 31.5 µM

Q: And the TGI [50]?
A: > 100 µM

Q: And the TGI [51]?
A: 43.5 µM

Q: And the TGI [52]?
A: 46.2 µM

Q: And the TGI [59]?
A: 39.6 µM

Q: And the TGI [53]?
A: 70.1 µM

Q: What about the TGI [54] of the same compound?
A: 36.4 µM

Q: And the TGI [55]?
A: > 100 µM

Q: What about the TGI [56] of the same compound?
A: 54.9 µM

Q: What about the TGI [57] of the same compound?
A: > 100 µM

Q: For `Cn1c(=O)c2c(nc3n(Cc4ccccc4)c(=O)c(Br)cn23)n(C)c1=O`, which TGI [1] is on record?
A: > 100 µM

Q: And the TGI [2]?
A: > 100 µM

Q: What about the TGI [3] of the same compound?
A: > 100 µM

Q: And the TGI [4]?
A: > 100 µM

Q: And the TGI [5]?
A: > 100 µM

Q: And the TGI [6]?
A: > 100 µM

Q: What about the TGI [7] of the same compound?
A: > 100 µM

Q: And the TGI [8]?
A: > 100 µM

Q: What about the TGI [9] of the same compound?
A: > 100 µM

Q: And the TGI [10]?
A: > 100 µM

Q: What about the TGI [11] of the same compound?
A: > 100 µM

Q: What about the TGI [12] of the same compound?
A: > 100 µM

Q: What about the TGI [13] of the same compound?
A: > 100 µM

Q: What about the TGI [14] of the same compound?
A: > 100 µM

Q: What about the TGI [15] of the same compound?
A: > 100 µM

Q: What about the TGI [16] of the same compound?
A: > 100 µM

Q: And the TGI [17]?
A: > 100 µM

Q: What about the TGI [18] of the same compound?
A: > 100 µM

Q: And the TGI [19]?
A: > 100 µM

Q: And the TGI [21]?
A: > 100 µM

Q: And the TGI [22]?
A: > 100 µM

Q: And the TGI [23]?
A: > 100 µM

Q: And the TGI [24]?
A: > 100 µM

Q: What about the TGI [25] of the same compound?
A: > 100 µM

Q: What about the TGI [26] of the same compound?
A: > 100 µM

Q: What about the TGI [27] of the same compound?
A: > 100 µM

Q: What about the TGI [28] of the same compound?
A: > 100 µM

Q: What about the TGI [29] of the same compound?
A: > 100 µM

Q: And the TGI [30]?
A: > 100 µM

Q: What about the TGI [31] of the same compound?
A: > 100 µM

Q: What about the TGI [58] of the same compound?
A: > 100 µM

Q: What about the TGI [32] of the same compound?
A: > 100 µM

Q: What about the TGI [33] of the same compound?
A: > 100 µM

Q: What about the TGI [34] of the same compound?
A: > 100 µM

Q: What about the TGI [35] of the same compound?
A: > 100 µM

Q: What about the TGI [36] of the same compound?
A: > 100 µM

Q: What about the TGI [37] of the same compound?
A: > 100 µM

Q: And the TGI [38]?
A: > 100 µM

Q: And the TGI [39]?
A: > 100 µM

Q: What about the TGI [40] of the same compound?
A: > 100 µM

Q: And the TGI [41]?
A: > 100 µM

Q: And the TGI [42]?
A: > 100 µM

Q: And the TGI [43]?
A: > 100 µM

Q: What about the TGI [44] of the same compound?
A: > 100 µM

Q: And the TGI [45]?
A: > 100 µM

Q: What about the TGI [46] of the same compound?
A: > 100 µM

Q: What about the TGI [48] of the same compound?
A: > 100 µM

Q: What about the TGI [49] of the same compound?
A: > 100 µM

Q: What about the TGI [50] of the same compound?
A: > 100 µM

Q: And the TGI [51]?
A: > 100 µM

Q: What about the TGI [52] of the same compound?
A: > 100 µM

Q: What about the TGI [59] of the same compound?
A: > 100 µM

Q: And the TGI [53]?
A: > 100 µM

Q: And the TGI [54]?
A: > 100 µM

Q: What about the TGI [55] of the same compound?
A: > 100 µM

Q: And the TGI [56]?
A: > 100 µM

Q: What about the TGI [57] of the same compound?
A: > 100 µM
